Structures can show the parent of a compound that is named as a salt. Where two headings read alike, the source gives them in different places.
Assays:
[1] = target: T1, SARS-CoV-2 PLpro (nsp3 1564–1878) (Severe acute respiratory syndrome coronavirus 2, UniProt P0DTD1); test: biochemical; set-up: FRET-quenched peptide (Pro3) cleavage by PLpro, 10 min pre-incubation, slope over 20 min, normalised to no-compound control; details: high concentration screen, read-out: % of control remaining
[2] = target: T1, SARS-CoV-2 PLpro (nsp3 1564–1878); test: biochemical; set-up: FRET-quenched peptide (Pro3) cleavage by PLpro, 10 min pre-incubation, slope over 20 min, normalised to no-compound control; details: low concentration screen, read-out: % of control remaining

Work on O=C(O)/C=C/c1cnc[nH]1 [4-Imidazoleacrylic acid] yielded a remaining activity at 3.75 µM ([1]; Well no.=1428) of 98.1% and a remaining activity at 1.25 µM ([2]; Well no.=1428) of 95.1%.

O=C1Nc2ccccc2/C1=C\c1c(Cl)[nH]c2ccccc12 [Cdk1 Inhibitor] was tested, and the remaining activity at 3.75 µM ([1]; Well no.=2364) was 104% and the remaining activity at 1.25 µM ([2]; Well no.=2364) was 101%.

In the case of N#CC(C#N)=C(N)/C(C#N)=C/c1ccc(O)cc1 [Tyrphostin AG 112], the remaining activity at 3.75 µM ([1]; Well no.=1245) is reported as 95.9% and the remaining activity at 1.25 µM ([2]; Well no.=1245) is reported as 95.9%.

In the case of Cc1cccc(Cc2c[nH]cn2)c1C [Detomidine (hydrochloride)], the remaining activity at 3.75 µM ([1]; Well no.=6662) is reported as 102% and the remaining activity at 1.25 µM ([2]; Well no.=6662) is reported as 98.9%.

For C[C@@H](Nc1ncnc2[nH]c(-c3ccc(O)cc3)cc12)c1ccccc1 [PKI-166], the remaining activity at 3.75 µM ([1]; Well no.=6037) was 78.3% and the remaining activity at 1.25 µM ([2]; Well no.=6037) was 94.4%.

Compound Cc1ccc(S(=O)(=O)NC(=O)NN2CC3CCC[C@@H]3C2)cc1 (stereo in doubt) [Gliclazide] has a remaining activity at 3.75 µM ([1]; Well no.=2176) of 102% and a remaining activity at 1.25 µM ([2]; Well no.=2176) of 101%.

COC(=O)[C@]1(O)C[C@@H]2O[C@@]1(C)n1c3ccccc3c3c4c(c5c6ccccc6n2c5c31)C(=O)NC4 [K-252a, Nocardiopsis sp.] gave a remaining activity at 3.75 µM ([1]; Well no.=2552) of 95.2% and a remaining activity at 1.25 µM ([2]; Well no.=2552) of 95.7%.

O=C(O)c1ccc[nH]1 [Pyrrole-2-carboxylic acid] showed a remaining activity at 3.75 µM ([1]; Well no.=6405) of 92.4% and a remaining activity at 1.25 µM ([2]; Well no.=6405) of 93.2%.

In the case of CCCC(=O)O[C@@H]1[C@@H](C)[C@@]2(O)[C@@H](C=C(CO)C[C@]3(O)C(=O)C(C)=C[C@@H]23)[C@@H]2C(C)(C)[C@]12OC(=O)CCC [Phorbol 12,13-dibutyrate], the remaining activity at 3.75 µM ([1]; Well no.=3487) is reported as 100% and the remaining activity at 1.25 µM ([2]; Well no.=3487) is reported as 97.7%.

C=CCN1C[C@H](C)N([C@H](c2ccc(C(=O)N(CC)CC)cc2)c2cccc(OC)c2)C[C@H]1C [SNC80] gave a remaining activity at 3.75 µM ([1]; Well no.=1216) of 102% and a remaining activity at 1.25 µM ([2]; Well no.=1216) of 99.3%.

Compound COC(=O)Nc1nc2cc(C(=O)c3ccccc3)ccc2[nH]1 [Mebendazol] has a remaining activity at 3.75 µM ([1]; Well no.=1947) of 100% and a remaining activity at 1.25 µM ([2]; Well no.=1947) of 99%.

Compound C[C@@H]1O[C@H](C[N+](C)(C)C)C[C@H]1O [(+)-Muscarine chloride] has a remaining activity at 3.75 µM ([1]; Well no.=3254) of 99.2% and a remaining activity at 1.25 µM ([2]; Well no.=3254) of 97.9%.

With O=C(Nc1cc(Cl)cc2c1[nH]c1cnccc12)c1cccnc1 [IKK Inhibitor X] the remaining activity at 3.75 µM ([1]; Well no.=2445) was 101% and the remaining activity at 1.25 µM ([2]; Well no.=2445) was 97.8%.

Compound O=C(O)c1cc(N(Cc2ccccc2O)Cc2cc(O)ccc2O)ccc1O [Lavendustin A] has a remaining activity at 3.75 µM ([1]; Well no.=3837) of 94.6% and a remaining activity at 1.25 µM ([2]; Well no.=3837) of 90.9%.

O=C(O)CCC(=O)N1CCC[C@H]1C(=O)O [N-Succinyl-L-proline] was tested, and the remaining activity at 3.75 µM ([1]; Well no.=1506) was 91.2% and the remaining activity at 1.25 µM ([2]; Well no.=1506) was 89.9%.

O=C(O)[C@@H]1[C@H](C(=O)O)[C@H]2CC[C@@H]1O2 [Endothall] gave a remaining activity at 3.75 µM ([1]; Well no.=701) of 97.8% and a remaining activity at 1.25 µM ([2]; Well no.=701) of 97.9%.

CN1CCc2cc3c(cc2C(=O)Cc2cc4c(cc2C1)OCO4)OCO3 [Protopine] gave a remaining activity at 3.75 µM ([1]; Well no.=3195) of 104% and a remaining activity at 1.25 µM ([2]; Well no.=3195) of 105%.

C[C@]12C=CC(=O)C=C1CC[C@@H]1[C@@H]2[C@@H](O)C[C@@]2(C)[C@H]1CC[C@]2(O)C(=O)CO [Prednisolone] showed a remaining activity at 3.75 µM ([1]; Well no.=6605) of 102%, a remaining activity at 1.25 µM ([2]; Well no.=2141) of 99.3% and a remaining activity at 1.25 µM ([2]; Well no.=6605) of 102%.

With O=C1NC(=O)c2c1c1c3ccccc3[nH]c1c1[nH]c3ccccc3c21 [Arcyriaflavin A, Synthetic] the remaining activity at 3.75 µM ([1]; Well no.=2333) was 102% and the remaining activity at 1.25 µM ([2]; Well no.=2333) was 105%.

Compound O=C(O)CC/C=C\C[C@H]1CO[C@@H](c2ccccc2Cl)O[C@H]1c1ccccc1O [ICI 192605] has a remaining activity at 3.75 µM ([1]; Well no.=5873) of 100% and a remaining activity at 1.25 µM ([2]; Well no.=5873) of 98.7%.

Work on N[C@@H](CSSC[C@H](N)C(=O)O)C(=O)O [L-Cystine] yielded a remaining activity at 3.75 µM ([1]; Well no.=6393) of 106% and a remaining activity at 1.25 µM ([2]; Well no.=6393) of 104%.

In the case of C[C@]12C=CC(=O)C=C1CC[C@@H]1[C@@H]2C(=O)C[C@@]2(C)[C@H]1CC[C@]2(O)C(=O)CO [Prednisone], the remaining activity at 3.75 µM ([1]; Well no.=2149) is reported as 103%, the remaining activity at 3.75 µM ([1]; Well no.=7429) is reported as 101% and the remaining activity at 1.25 µM ([2]; Well no.=2149) is reported as 97.7%. It also gave a remaining activity at 1.25 µM ([2]; Well no.=7429) of 109%.

Compound Cn1c(=O)c2c(ncn2C)n(C)c1=O [Caffeine] has a remaining activity at 3.75 µM ([1]; Well no.=329) of 95.9%, a remaining activity at 3.75 µM ([1]; Well no.=1737) of 103% and a remaining activity at 3.75 µM ([1]; Well no.=3344) of 91.8%. The remaining activity at 1.25 µM ([2]; Well no.=329) was 95.2%, the remaining activity at 1.25 µM ([2]; Well no.=1737) was 105% and the remaining activity at 1.25 µM ([2]; Well no.=3344) was 89.5%.

O=C(COc1cccc2c(=O)[nH]ccc12)c1ccccc1 [UPF 1069] showed a remaining activity at 3.75 µM ([1]; Well no.=4828) of 96.4% and a remaining activity at 1.25 µM ([2]; Well no.=4828) of 94.8%.

Compound C=CC(N)CCC(=O)O (racemic) has a remaining activity at 3.75 µM ([1]; Well no.=1528) of 96.6% and a remaining activity at 1.25 µM ([2]; Well no.=1528) of 98.8%.

N[C@@H](Cc1c[nH]c2ccc(O)cc12)C(=O)O [5-Hydroxy-L-tryptophan] gave a remaining activity at 3.75 µM ([1]; Well no.=712) of 98.5% and a remaining activity at 1.25 µM ([2]; Well no.=712) of 91.8%.

For C[C@H]1CCN(C(=O)CC#N)C[C@H]1N(C)c1ncnc2[nH]ccc12 [Tasocitinib], the remaining activity at 3.75 µM ([1]; Well no.=2789) was 98.6% and the remaining activity at 1.25 µM ([2]; Well no.=2789) was 103%.

In the case of COc1ccccc1N1CCN(CCN(C(=O)c2ccc(F)cc2)c2ccccn2)CC1 [p-MPPF dihydrochloride], the remaining activity at 3.75 µM ([1]; Well no.=899) is reported as 101% and the remaining activity at 1.25 µM ([2]; Well no.=899) is reported as 100%.

N[C@@H]1C=CC=C(C(=O)O)C1 [Gabaculine hydrochloride] was tested, and the remaining activity at 3.75 µM ([1]; Well no.=13) was 105% and the remaining activity at 1.25 µM ([2]; Well no.=13) was 105%.

COc1ccc(-c2ccc3ncc4c(c3c2)n(-c2ccc(N3CCNCC3)c(C(F)(F)F)c2)c(=O)n4C)cn1 [NVP-BGT226] was tested, and the remaining activity at 3.75 µM ([1]; Well no.=4701) was 97.1% and the remaining activity at 1.25 µM ([2]; Well no.=4701) was 99%.

Compound O=C1CCCN1CC#CCN1CCCC1 [Oxotremorine] has a remaining activity at 3.75 µM ([1]; Well no.=1673) of 102% and a remaining activity at 1.25 µM ([2]; Well no.=1673) of 104%.

Work on c1ccc2c3c([nH]c2c1)CNCC3 [Noreleagnine] yielded a remaining activity at 3.75 µM ([1]; Well no.=3260) of 101% and a remaining activity at 1.25 µM ([2]; Well no.=3260) of 101%.

With c1cnc(NCc2ccc(CNc3ncccn3)cc2)nc1 [MSX-122] the remaining activity at 3.75 µM ([1]; Well no.=8075) was 84.8%, the remaining activity at 3.75 µM ([1]; Well no.=8397) was 90.4% and the remaining activity at 1.25 µM ([2]; Well no.=8075) was 97%. It also gave a remaining activity at 1.25 µM ([2]; Well no.=8397) of 89.1%.

In the case of NCCC1CCCC(CCN)N1 (stereo not shown) [MDL 26,630 trihydrochloride], the remaining activity at 3.75 µM ([1]; Well no.=945) is reported as 104% and the remaining activity at 1.25 µM ([2]; Well no.=945) is reported as 103%.

CC(C)[C@H](N)C(=O)N1CCC[C@H]1C(=O)N1CCC[C@H]1C(=O)O [H-Val-Pro-Pro-OH (TFA)] was tested, and the remaining activity at 3.75 µM ([1]; Well no.=7546) was 100% and the remaining activity at 1.25 µM ([2]; Well no.=7546) was 100%.
